The target of test [1] is T1, human muscarinic M1 receptor (Homo sapiens, UniProt P11229).
T1 sequence (P11229 1-460): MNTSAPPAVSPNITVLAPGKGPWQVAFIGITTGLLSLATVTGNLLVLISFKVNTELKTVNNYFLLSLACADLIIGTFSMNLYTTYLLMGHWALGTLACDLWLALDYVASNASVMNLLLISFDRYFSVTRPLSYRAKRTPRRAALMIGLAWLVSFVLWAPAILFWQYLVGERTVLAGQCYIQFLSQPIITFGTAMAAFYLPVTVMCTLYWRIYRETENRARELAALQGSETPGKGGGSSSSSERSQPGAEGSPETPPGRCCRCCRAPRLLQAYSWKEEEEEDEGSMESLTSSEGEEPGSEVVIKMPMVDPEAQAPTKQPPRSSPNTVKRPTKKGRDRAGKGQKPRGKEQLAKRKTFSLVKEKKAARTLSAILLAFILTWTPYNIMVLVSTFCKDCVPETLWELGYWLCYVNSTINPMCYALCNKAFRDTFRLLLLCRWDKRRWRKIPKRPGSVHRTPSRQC
The experiment in a line: Alphascreen Surefire phospho-ERK1/2 functional assay, M1. Conditions: for EC50: CHO cells stably expressing human M1, read-out: pEC50 M1 (converted); for Emax: CHO, read-out: % Emax cf. ACh, M1, CHO cells stably expressing human M1, relative to ACh; for % Emax cf. ACh, M1: CHO cells stably expressing human M1, relative to ACh. In kind it is cell-based. Here is the method:
(§1) ERK1/2 phosphorylation is a downstream consequence of both Gq/11 and Gi/o protein coupled receptor activation, making it highly suitable for the assessment of M1, M3 (Gq/11 coupled) and M2, M4 receptors (Gi/o coupled), rather than using different assay formats for different receptor subtypes. CHO cells stably expressing the human muscarinic M1, M2, M3 or M4 receptor were plated (25K/well) onto 96-well tissue culture plates in MEM-alpha+10% dialysed FBS. Once adhered, cells were serum-starved overnight. Agonist stimulation was performed by the addition of 5 μL agonist to the cells for 5 min (37° C.). Media was removed and 50 μL of lysis buffer added. […] Plates were incubated for 2 h with gentle agitation in the dark and then read on a PHERAstar plate reader.
(§2) pEC50 and Emax figures were calculated from the resulting data for each receptor subtype.
For orientation: In Alpha technology, singlet oxygen from a donor bead excites a nearby acceptor bead.

The target of test [2] is T2, human muscarinic M4 receptor (Homo sapiens, UniProt P08173).
T2 construct: expressed in transfected cells
T2 sequence (P08173 1-479): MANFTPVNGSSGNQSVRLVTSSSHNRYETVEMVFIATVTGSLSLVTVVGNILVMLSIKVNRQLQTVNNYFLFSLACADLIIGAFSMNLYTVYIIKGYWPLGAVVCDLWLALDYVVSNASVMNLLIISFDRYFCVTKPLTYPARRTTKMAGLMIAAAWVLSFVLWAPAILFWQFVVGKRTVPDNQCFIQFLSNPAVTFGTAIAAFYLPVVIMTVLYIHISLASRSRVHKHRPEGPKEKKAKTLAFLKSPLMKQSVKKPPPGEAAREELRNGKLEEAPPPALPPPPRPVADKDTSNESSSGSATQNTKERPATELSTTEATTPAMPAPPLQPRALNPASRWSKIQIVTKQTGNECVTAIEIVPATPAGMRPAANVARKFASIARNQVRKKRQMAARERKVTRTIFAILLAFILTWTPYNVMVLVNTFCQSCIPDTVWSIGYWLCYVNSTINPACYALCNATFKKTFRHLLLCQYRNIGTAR
The experiment in a line: Alphascreen Surefire phospho-ERK1/2 functional assay, M4. The note with it: for EC50: CHO cells stably expressing human M4, read-out: pEC50 M4 (converted); for Emax: CHO, read-out: % Emax cf. ACh, M4, CHO cells stably expressing human M4, relative to ACh; for % Emax cf. ACh, M4: CHO cells stably expressing human M4, relative to ACh. In kind it is cell-based. Here is the method:
as §1, §2

The term Emax denotes the size of the effect at its maximum, as opposed to the concentration needed. Consider `CCOC(=O)N1[C@@H]2CC[C@H]1CC(N1CCC3(CC1)OC(=O)NC3Cc1ccccn1)C2` (mixture of isomers) [Example 2-23, ethyl-3-(2-oxo-4-(pyridin-2-ylmethyl)-1-oxa-3,8-diazaspiro[4.5]decan-8-yl)-8-azabicyclo[3.2.1]octane-8-carboxylate], for which, in test [1], the EC50 was 501 nM and the maximal effect (Emax) came out at 86%. For the same molecule, in test [2], the EC50 is over 20000 nM and the Emax was found to be 12%.

Turning to `COC(=O)N1C2CCC1CC(N1CCC3(CC1)CNC(=O)C3)C2` (single isomer, unassigned) [Example 2-1 Isomer 2], in test [1], the EC50 was 631 nM and the Emax worked out at 72%. In test [2], the EC50 is 1580 nM and the Emax came out at 25%.

Regarding `O=C1CC2(CCN(C3CC4CCC(C3)N4C(=O)OCCF)CC2)CN1` (single isomer, unassigned) [Example 2-3 Isomer 1], the EC50 in test [1] was 398 nM; in test [2], 2000 nM. The “% Emax cf. ACh, M1” value in test [1] (listed as 2-3 Isomer 1) amounted to 85%. For the same molecule, the “% Emax cf. ACh, M4” value in test [2] (listed as 2-3 Isomer 1) came to 47%.

On to `CCCC(=O)N1C2CCC1CC(N1CCC3(CC1)CNC(=O)C3)C2` (single isomer, unassigned) [Example 2-6 Isomer 2], for which the EC50 in test [1] was 501 nM; in test [2] it was 15800 nM. Also, the Emax came out at 35% in test [1] and 32% in test [2].

For the molecule `CCOC(=O)N1C2CCC1C(F)C(N1CCC3(CC1)CNC(=O)C3)C2` (single isomer, unassigned) [Example 2-11 Isomer 1], in test [1], the EC50 is 631 nM and the Emax is 95%. In test [2], the EC50 was 1000 nM and the Emax turned out to be 53%.

Consider `CCOC(=O)N1C2CCC1CC(N1CCC3(CC1)CNC(=O)O3)C2` (single isomer, unassigned) [Example 2-14 Isomer 1], for which the EC50 in test [1] was 200 nM; in test [2] it was 501 nM. The Emax in test [1] is 108%; in test [2], 55%.

As to `CCOC(=O)N1C2CCC1CC(N1CCC3(CC1)OC(=O)NC3C)C2` (single isomer, unassigned) [Example 2-15 Isomer 1], the EC50 in test [1] was 100 nM; in test [2] it was over 20000 nM. For the same molecule, the values for the Emax in test [1] and in test [2] were 101% and 10%, respectively.

As for `CCOC(=O)N1C2CCC1CC(N1CCC3(CC1)OC(=O)NC3CC)C2` (single isomer, unassigned) [Example 2-16 Isomer 2], the figures for the EC50 in test [1] and in test [2] were 631 nM and 200 nM, respectively. The “% Emax cf. ACh, M1” value in test [1] (listed as 2-16 Isomer 2) worked out at 68%. Also, in test [2] (listed as 2-16 Isomer 2), the “% Emax cf. ACh, M4” value came to 51%.

In the case of `CCOC(=O)N1C2CCC1CC(N1CCC3(CC1)OC(=O)NC3(C)C)C2` (single isomer, unassigned) [Example 2-18 Isomer 1], in test [1], the EC50 was 251 nM and the Emax was determined as 55%. In test [2], the EC50 was over 20000 nM and the Emax was found to be 11%.

Take `CCOC(=O)N1C2CCC1C(F)C(N1CCC3(CC1)CNC(=O)O3)C2` (single isomer, unassigned) [Example 2-19 Isomer 2]: in test [1], the EC50 is 1000 nM and the Emax was 94%. Moreover, in test [2], the EC50 is 3980 nM and the Emax turned out to be 74%.

Turning to `CCOC(=O)N1C2CCC1CC(N1CCC3(CC1)CC(=O)N(C(C)C)C3)C2` (single isomer, unassigned) [Example 2-26 Isomer 2], in test [1], the EC50 is 631 nM and the Emax was found to be 43%. For the same molecule, in test [2], the EC50 was 631 nM and the Emax turned out to be 22%.

As for `CCOC(=O)N1C2CCC1CC(N1CCC3(CC1)CC(=O)N(CC(C)C)C3)C2` (single isomer, unassigned) [Example 2-27 Isomer 2], in test [1], the EC50 was 398 nM and the Emax stood at 38%. For the same molecule, in test [2], the EC50 was over 20000 nM and the Emax turned out to be 14%.

Turning to `CCOC(=O)N1C2CCC1CC(N1CCC3(CC1)CC(=O)N(CC1CC1)C3)C2` (single isomer, unassigned) [Example 2-28 Isomer 2], the EC50 in test [1] is 501 nM; in test [2], 316 nM. The Emax in test [1] was 57%; in test [2], 27%.

Take `[2H]C([2H])(C)OC(=O)N1C2CCC1CC(N1CCC3(CC1)CNC(=O)C3)C2` (single isomer, unassigned) [Example 2-30 Isomer 1, (1,1-^2H2)ethyl 3-(3-oxo-2,8-diazaspiro[4.5]dec-8-yl)-8-azabicyclo[3.2.1]octane-8-carboxylate]: the EC50 in test [1] is 126 nM; in test [2], 200 nM. Further, the “% Emax cf. ACh, M1” value in test [1] (listed as 2-30 Isomer 1) was 107%. For the same molecule, in test [2], the Emax came to 49%.

Consider `[2H]C([2H])([2H])COC(=O)N1C2CCC1CC(N1CCC3(CC1)CNC(=O)C3)C2` (single isomer, unassigned) [Example 2-31 Isomer 1], for which the EC50 was 126 nM in test [1] and 251 nM in test [2]. The “% Emax cf. ACh, M1” value in test [1] (listed as 2-31 Isomer 1) is 112%. The “% Emax cf. ACh, M4” value in test [2] (listed as 2-31 Isomer 1) was 53%.

As to `CC(C)OC(=O)N1C2CCC1CC(N1CCC3(CC1)CNC(=O)C3)C2` (single isomer, unassigned) [Example 2-33 Isomer 1], the figures for the EC50 in test [1] and in test [2] were 31.6 nM and 200 nM, respectively. Further, the “% Emax cf. ACh, M1” value in test [1] (listed as 2-33 Isomer 1) is given as 37%. In addition, the Emax in test [2] came out at 20%.

In the case of `CC(C)OC(=O)N1C2CCC1CC(N1CCC3(CC1)CNC(=O)C3)C2` (single isomer, unassigned) [Example 2-33 Isomer 2], in test [1], the EC50 is 398 nM. Moreover, the “% Emax cf. ACh, M1” value in test [1] (listed as 2-33 Isomer 2) turned out to be 62%. In test [2], the EC50 was 316 nM and the “% Emax cf. ACh, M4” value came out at 25%.

In the case of `CSC(=O)N1C2CCC1CC(N1CCC3(CC1)CNC(=O)C3)C2` (single isomer, unassigned) [Example 2-34 Isomer 1], in test [1], the EC50 was 501 nM and the Emax amounted to 50%. Moreover, in test [2], the EC50 is over 20000 nM and the Emax is 8%.

Regarding `CCSC(=O)N1C2CCC1CC(N1CCC3(CC1)CNC(=O)C3)C2` (single isomer, unassigned) [Example 2-35 Isomer 1], the EC50 in test [1] was 39.8 nM. Besides, the “% Emax cf. ACh, M1” value in test [1] (listed as 2-35 Isomer 1) stood at 24%. Further, in test [2], the EC50 was over 20000 nM and the Emax came to 7%.

In the case of `CCSC(=O)N1C2CCC1CC(N1CCC3(CC1)CNC(=O)C3)C2` (single isomer, unassigned) [Example 2-35 Isomer 2], the EC50 in test [1] is 794 nM. For the same molecule, the “% Emax cf. ACh, M1” value in test [1] (listed as 2-35 Isomer 2) is listed as 50%. For the same molecule, the “% Emax cf. ACh, M4” value in test [2] came out at 10%.

For `CCOC(=O)N1CC2CCC1CC2N1CCC2(CC1)CNC(=O)C2` (single isomer, unassigned) [Example 3-1 Isomer 4, ethyl 5-(3-oxo-2,8-diazaspiro[4.5]dec-8-yl)-2-azabicyclo[2.2.2]octane-2-carboxylate], the EC50 in test [1] was 1260 nM; in test [2], over 20000 nM. The “% Emax cf. ACh, M1” value in test [1] (listed as 3-1 Isomer 4) is 62%. For the same molecule, in test [2] (listed as 3-1 Isomer 4), the “% Emax cf. ACh, M4” value amounted to 7%.

With `CCOC(=O)N1CC2CCC1CC2N1CCC2(CC1)CNC(=O)O2` (single isomer, unassigned) [Example 3-2 Isomer 1, ethyl 5-(2-oxo-1-oxa-3,8-diazaspiro[4.5]dec-8-yl)-2-azabicyclo[2.2.2]octane-2-carboxylate], in test [1], the EC50 is 251 nM and the Emax was 111%. For the same molecule, in test [2], the EC50 is 1260 nM and the Emax is 29%.

Source of the values: patent US12202843B2, “Muscarinic receptor agonists” (Nxera Pharma UK Limited, priority 2014, dated 2025).
